Laboratory results as given in patent publication US8859508B2, “Application of 5-methyl-1,3-benzenediol or derivatives thereof in the preparation of medicines and functional foods for treatment or prevention of depression” (Kunming Institute of Botany, Chinese Academy of Sciences, priority 2007, dated 2014).
Entries after “also recorded” stand apart in the source; their conditions may differ.

Legend:
Kunming mice [1] = assay: Morris water maze (MWM) in mice; assay type: in vivo, mouse
Method: Kunming mice (Certificate Number: A4CXK(Chuan)2003-16) from the Institute of Experimental Animals, People's Hospital of Sichuan Province, were used. They were 3-4 weeks old at the beginning of the experiment and weighed 25-30 g. ORG was prepared as described in Example 1. Animals were divided into drug administration groups with fluoxetine or different doses of ORG and a vehicle control group. The drug administration groups received 1.75 mg/kg or 3.5 mg/kg of ORG or 15 mg/kg of fluoxetine. Animals received a single i.p. injection of drug or vehicle 30 min either after training every day or 30 min before the retention test on day 8.
Morris water maze: The MWM was performed in a circular pool (100 cm in diameter and 36 cm in depth) with a hidden platform (10 cm×10 cm) that was approximately 1 cm below the water surface. The pool was surrounded by yellow curtains with different shaped markers hanging in each quadrant. The time spent to find the hidden platform and the trajectory of the mouse were recorded by computer. From days 1 to 7, mice were placed in the pool to find the fixed hidden platform. On day 8, the platform was removed and the time that the mouse spent in the target quadrant was counted in 1 min of free swimming.
Data analysis: The results of the test are expressed as mean±SEM. One-way ANOVA was used followed by the LSD test with SPSS 11 software. The significance level was set at P<0.05.

CMS model mice = assay: FST in chronic unpredictable mild stress (CMS) model mice; assay type: in vivo, mouse; details: for Immobility time (s) (mean ± SEM): oral once a day for 7 days
Method: Kunming mice (Certificate Number: A4CXK(Chuan)2003-16) from the Institute of Experimental Animals, People's Hospital of Sichuan Province, were used. They were 3-4 weeks old at the beginning of experiments and weighed 25-30 g. ORG was prepared as described in Example 1. Animals were divided into experiment groups with different doses, a vehicle control group, and an imipramine group (Sigma, Batch No. 106k1588) as positive control.
CMS model: The chronic mild stresses that Kunming mice were subjected to were reversal of circadian rhythm, continuous light, cold, damp bedding, tilt cages, food and water restriction, and restraint. […] The stress period lasted for 8 weeks. In the last week, ORG was administered orally once a day for 7 consecutive days. The behavioral test was carried out 30 min after the last administration. The parameter tested was immobility time in the FST and TST in the CMS model mice. The methods of FST and TST and data analysis were as described above.

rats = assay: Subacute toxicity test of ORG in rats; assay type: in vivo
Method: Rats (Certificate Number: A4CXK(Chuan)2003-16) from the Institute of Experimental Animals, People's Hospital of Sichuan Province, were used. Their weight was 250-300 g. ORG was prepared as described in Example 1.
There was no significant difference between the two groups.

Kunming mice [2] = assay: Acute toxicity test of ORG in mice; assay type: in vivo; details: mice, 1750 mg/kg oral
Method: (§1) Kunming mice (Certificate Number: A4CXK(Chuan)2003-16) from the Institute of Experimental Animals, People's Hospital of Sichuan Province, were used. They were 3-4 weeks old and at the beginning of the experiment and weighed 25-30 g. ORG was prepared as described in Example 1. ORG (1750 mg) was dissolved in 10 ml NS to give a concentration of 175 mg/ml. Mice were divided into two groups, the ORG group for evaluation was given ORG and a group was treated with NS for vehicle control. ORG and NS were given to each group orally at a volume of 0.1 ml/10 g.

[3] = Acute toxicity test of ORG in mice; assay type: in vivo; details: mouse, in vivo, 1750 mg/kg; acute toxicity test, Kunming mice, oral; read-out: median toxic dose (TD50)
Method: as §1

[4] = 1750 mg/kg orally once per day for 14 consecutive days

## Cc1cc(O)cc(OC2OC(CO)C(O)C(O)C2O)c1 [ORG, orcinol-1-O-β-D-glucopyranoside]
Kunming mice [1]; i.p. 30 min before retrieval on day 8, 1.75 mg/kg
  Time spent in the right quadrant (s) (mean ± SEM): 29.38 ± 2.16 s
Kunming mice [1]; i.p. 30 min before retrieval on day 8, 3.5 mg/kg
  Time spent in the right quadrant (s) (mean ± SEM): 35.52 ± 2.43 s
Kunming mice [1]; i.p. daily 30 min after training, retention test day 8, 1.75 mg/kg
  Time spent in the right quadrant (s) (mean ± SEM): 28.18 ± 1.70 s
Kunming mice [1]; i.p. daily 30 min after training, retention test day 8, 3.5 mg/kg
  Time spent in the right quadrant (s) (mean ± SEM): 34.24 ± 2.01 s
CMS model mice; CMS mice
  therapeutic index (TI) = TD50÷ED50: > 2160
CMS model mice; CMS mice, 2.5 mg/kg
  Immobility time (s) (mean ± SEM): 177.00 ± 11.78 s
CMS model mice; CMS mice, 5 mg/kg
  Immobility time (s) (mean ± SEM): 177.50 ± 12.39 s
CMS model mice; CMS mice, 10 mg/kg
  Immobility time (s) (mean ± SEM): 170.84 ± 10.48 s
CMS model mice; CMS mice, 20 mg/kg
  Immobility time (s) (mean ± SEM): 164.95 ± 11.36 s
CMS model mice; CMS mice, test 30 min after last dose, 1.25 mg/kg
  Immobility time (s) (mean ± SEM): 190.90 ± 12.94 s
CMS model mice; CMS model mice, ORG oral
  best dose for the antidepressant effect: 20 mg/kg
CMS model mice; Mus musculus, CMS model mice, ORG oral
  ED50: 0.81 mg/kg
rats; [4]
  subacute toxicity: appearance, behavior, mental status, appetite, hair, color, breathing: nothing abnormal was found
  subacute toxicity: survival: All rats survived
  subacute toxicity: weight gain: the weight gain was normal
rats; 1750 mg/kg orally once per day for 14 days, sacrificed on day 14
  subacute toxicity: pathological section of visceral organs: no evident abnormalities
Kunming mice [2]; 14 days
  acute toxicity: survival: All mice survived
  acute toxicity: weight gain: the weight gain was normal
Kunming mice [2]; observed for 14 days, 1750 mg/kg
  acute toxicity: appearance, behavior, mental status, appetite, hair, color, breathing (ethological investigation): did not find abnormalities; also recorded: nothing abnormal was found
Kunming mice [2]; sacrificed on day 14
  acute toxicity: pathological section of visceral organs: no evident abnormalities
[3]
  TD50: > 1750 mg/kg
